The target of this test is rhSYK (Homo sapiens, UniProt P43405). As to conditions: read-out: rhSYK Activity; class symbol; where two forms are listed, one symbol per form.

Bounds are passed on as bounds.

Turning to `Cc1cc(Nc2nccc(C(F)(F)F)n2)cc(-c2cnc(C(C)(O)CCCN)s2)c1` (centres unmarked) [Example 4A-46], the IC50 is less than 100 nM.
With `Cc1cc(Nc2nccc(C(F)(F)F)n2)cc(-c2cnc(C(C)(O)CCCC(=O)O)s2)c1` (centres unmarked) [Example 4A-47] the figure was less than 100 nM; with `COC(=O)C(C)(C)C(C)(O)c1ncc(-c2cc(C)cc(Nc3nccc(C(F)(F)F)n3)c2)s1` (centres unmarked) [Example 4A-48], less than 100 nM; with `Cc1cc(Nc2nccc(C(F)(F)F)n2)cc(-c2cnc(C(O)(c3ccccn3)C(C)C)s2)c1` (centres unmarked) [Example 4A-49], 100 to 1000 nM.
With `COc1ccsc1C(C)(O)c1ncc(-c2cc(C)cc(Nc3nccc(C(F)(F)F)n3)c2)s1` (centres unmarked) [Example 4A-50] the figure was less than 100 nM; with `CC(=O)c1ccc(C(C)(O)c2ncc(-c3cc(C)cc(Nc4nccc(C(F)(F)F)n4)c3)s2)cc1` (centres unmarked) [Example 4A-51], less than 100 nM.
Turning to `COC(=O)c1ccc(C(O)c2ncc(-c3cc(C)cc(Nc4nccc(C(F)(F)F)n4)c3)s2)cc1` (centres unmarked) [Example 4A-52], the IC50 lay within 100 to 1000 nM.
As for `Cc1cc(Nc2nccc(C(F)(F)F)n2)cc(-c2cnc(C(C)(O)c3cccc(C(=O)O)c3)s2)c1` (centres unmarked) [Example 4A-53], the IC50 was less than 100 nM.
With `Cc1cc(Nc2nccc(C(F)(F)F)n2)cc(-c2cnc(C(C)(O)c3ccc([N+](=O)[O-])cc3)s2)c1` (centres unmarked) [Example 4A-56] the figure was 100 to 1000 nM; with `Cc1cc(Nc2nccc(C(F)(F)F)n2)cc(-c2cnc(C(C)(O)c3ccc(CC(=O)O)cc3)s2)c1` (centres unmarked) [Example 4A-58], less than 100 nM; with `Cc1cc(Nc2nccc(C(F)(F)F)n2)cc(-c2cnc(C(C)(O)Cc3ccc(C(=O)O)cc3)s2)c1` (centres unmarked) [Example 4A-61], less than 100 nM.
Under `COC(OC)C(O)(c1ccccn1)c1ncc(-c2cc(C)cc(Nc3nccc(C(F)(F)F)n3)c2)s1` (centres unmarked) [Example 4A-62] stands less than 100 nM; under `Cc1cc(Nc2nccc(C(F)(F)F)n2)cc(-c2cnc(C(C)(O)c3cc(CC(=O)O)cs3)s2)c1` (centres unmarked) [Example 4A-63], less than 100 nM; under `COc1cc(C(C)(O)c2ncc(-c3cc(C)cc(Nc4nccc(C(F)(F)F)n4)c3)s2)ccc1C(=O)O` (centres unmarked) [Example 4A-64], less than 100 nM.
As to `Cc1cc(Nc2nccc(C(F)(F)F)n2)cc(-c2cnc(C(C)(O)c3cccc(OCC(=O)O)c3)s2)c1` (centres unmarked) [Example 4A-67], the IC50 is less than 100 nM.
Turning to `Cc1cc(Nc2nccc(C(F)(F)F)n2)cc(-c2cnc(C(C)(O)c3ccc(Br)nc3)s2)c1` (centres unmarked) [Example 4A-70], the IC50 is less than 100 nM.
On to `Cc1cc(Nc2nccc(C(F)(F)F)n2)cc(-c2cnc(C(C)(O)c3cncc(Br)c3)s2)c1` (centres unmarked) [Example 4A-71], for which the IC50 was less than 100 nM.
Under `COC(=O)c1ccc(C(C)(O)c2ncc(-c3cc(C)cc(Nc4nccc(C(F)(F)F)n4)c3)s2)cc1OC` (centres unmarked) [Example 4A-72] stands 100 to 1000 nM; under `Cc1cc(Nc2nccc(C(F)(F)F)n2)cc(-c2cnc(C(C)(O)c3ccc(S(=O)(=O)N(C)C)cc3)s2)c1` (centres unmarked) [Example 4A-73], 100 to 1000 nM; under `Cc1cc(Nc2nccc(C(F)(F)F)n2)cc(-c2cnc(C(C)(O)c3cnc4sc(C(=O)O)c(C)c4c3)s2)c1` (centres unmarked) [Example 4A-74], less than 100 nM.
In the case of `Cc1cc(Nc2nccc(C(F)(F)F)n2)cc(-c2cnc(C(C)(O)c3cccc(-c4cccc(C(=O)O)c4)c3)s2)c1` (centres unmarked) [Example 4A-75], the IC50 is less than 100 nM.
Under `Cc1cc(Nc2nccc(C(F)(F)F)n2)cc(-c2cnc(C(C)(O)c3ccc(N4CC(C(=O)O)CC4=O)cc3)s2)c1` (centres unmarked) [Example 4A-78] stands less than 100 nM; under `COc1ccnc(Nc2cc(C)cc(-c3cnc(C(C)(O)c4ccc(C(=O)O)cc4)s3)c2)n1` (centres unmarked) [Example 4A-79], less than 100 nM.
Regarding `Cc1cc(Nc2nccc(C(F)(F)F)n2)cc(-c2cnc(C3(O)CCC3)s2)c1` [Example 4B-1], the IC50 was less than 100 nM.
Under `CC1CCCC1(O)c1ncc(-c2cccc(Nc3nccc(C(F)(F)F)n3)c2)s1` (centres unmarked) [Example 4B-2] stands less than 100 nM; under `CCOC(=O)N1C2CCC1CC(O)(c1ncc(-c3cccc(Nc4nccc(C(F)(F)F)n4)c3)s1)C2` (centres unmarked) [Example 4B-3], 100 to 1000 nM; under `O=C(c1ccoc1)c1ncc(-c2cccc(Nc3nccc(C(F)(F)F)n3)c2)s1` [Example 4B-4], 100 to 1000 nM.
`O=C(c1ccon1)c1ncc(-c2cccc(Nc3nccc(C(F)(F)F)n3)c2)s1` [Example 4B-5]: the IC50 is less than 100 nM.
As for `N#CCCC1CCCCC1(O)c1ncc(-c2cccc(Nc3nccc(C(F)(F)F)n3)c2)s1` (centres unmarked) [Example 4B-6], the IC50 lay within 100 to 1000 nM.
With `OC1(c2ncc(-c3cccc(Nc4nccc(C(F)(F)F)n4)c3)s2)CC2COCC(C1)N2Cc1ccccc1` (centres unmarked) [Example 4B-9] the figure was 1000 to 10000 nM.
As for `Cc1cc(Nc2nccc(C)n2)cc(-c2cnc(C3(O)C4CC5CC3CN(C5)C4)s2)c1` (centres unmarked) [Example 4B-17], the IC50 is 100 to 1000 nM.
Under `Cc1cc(Nc2nccc(C(F)(F)F)n2)cc(-c2cnc(C3(O)CCCC4(OCCO4)C3(C)C)s2)c1` (centres unmarked) [Example 4B-28] stands 100 to 1000 nM.
With `Cc1cc(Nc2nccc(C(F)(F)F)n2)cc(-c2cnc(C3(O)CC4C(Br)CC3C4C(=O)O)s2)c1` (centres unmarked) [Example 4B-53], the IC50 was less than 100 nM.
Under `Cc1cc(Nc2nccc(C(F)(F)F)n2)cc(-c2cnc(C3(O)CC4C(Br)CC3C4C(=O)O)s2)c1` (centres unmarked) [Example 4B-54] stands less than 100 nM; under `Cc1cc(Nc2nccc(C(F)(F)F)n2)cc(-c2cnc(C(=O)CCC#N)s2)c1` [Example 4B-59], less than 100 nM; under `Cc1cc(Nc2nccc(C(F)(F)F)n2)cc(-c2cnc(C(=O)CCC(=O)CCO)s2)c1` [Example 4B-62], 100 to 1000 nM.
With `Cc1cc(Nc2nccc(C(F)(F)F)n2)cc(-c2cnc(C3(O)CCC(CN)CC3)s2)c1` (centres unmarked) [Example 4C-4] the figure was less than 100 nM; with `Cc1cc(Nc2nccc(C(F)(F)F)n2)cc(-c2cnc([C@]3(O)CC[C@H](CO)CC3)s2)c1` [Example 4C-6], less than 100 nM; with `Cc1cc(Nc2nccc(C(F)(F)F)n2)cc(-c2cnc(C3(O)CCC(CO)CC3)s2)c1` (centres unmarked) [Example 4C-7], less than 100 nM.
For `Cc1cc(Nc2nccc(C(F)(F)F)n2)cc(-c2cnc([C@]3(O)CC[C@@H](CO)CC3)s2)c1` [Example 4C-8], the IC50 is less than 100 nM.
With `Cc1cc(Nc2nccc(C(F)(F)F)n2)cc(-c2cnc([C@]3(O)CC[C@@H](CC(=O)O)CC3)s2)c1` [Example 4C-14] the figure was less than 100 nM; with `Cc1cc(Nc2nccc(C(F)(F)F)n2)cc(-c2cnc([C@]3(O)CC[C@H](CC(=O)O)CC3)s2)c1` [Example 4C-15], less than 100 nM; with `CCOC(=O)C1CCCC(O)(c2ncc(-c3cc(C)cc(Nc4nccc(C(F)(F)F)n4)c3)s2)C1` (centres unmarked) [Example 4C-21], 100 to 1000 nM.
With `COC(=O)C1CCC(O)(c2ncc(-c3cc(C)cc(Nc4nccc(C(F)(F)F)n4)c3)s2)CC1C(C)C` (centres unmarked) [Example 4C-25] the figure was 100 to 1000 nM; with `Cc1cc(Nc2nccc(C(F)(F)F)n2)cc(-c2cnc(C3(O)CCC(CC(C)(C)C(=O)O)CC3)s2)c1` (centres unmarked) [Example 4C-26], less than 100 nM.
On to `Cc1cc(Nc2nccc(C(F)(F)F)n2)cc(-c2cnc([C@]3(O)CC[C@@H](NC(=O)Cn4ccnc4)CC3)s2)c1` [Example 4C-29], for which the IC50 was less than 100 nM.
Regarding `Cc1cc(Nc2nccc(C(F)(F)F)n2)cc(-c2cnc(C3(O)CCC(NC(=O)C4CCC(=O)O4)CC3)s2)c1` (centres unmarked) [Example 4C-30], the IC50 was less than 100 nM.
